According to patent US5498755A, “Disubstituted aryl and heteroaryl imines having retinoid-like biological activity” (priority 1994, dated 1996):

Tested on: ornithine decarboxylase (ODC)
Experiment: ODC assay: inhibition of TPA induction of ornithine decarboxylase
Format: biochemical
Conditions: concentration of the test compound which causes 80% inhibition in the ODC assay; TPA-induced ODC
Source text: The retinoic acid-like activity of these compounds is confirmed through the classic measure of retinoic acid activity involving the effects of retinoic acid on ornithine decarboxylase. The original work on the correlation between retinoic acid and decrease in cell proliferation was done by Verma & Boutwell, Cancer Research, 1977, 37, 2196-2201. That reference discloses that ornithine decarboxylase (ODC) activity increased precedent to polyamine biosynthesis. It has been established elsewhere that increases in polyamine synthesis can be correlated or associated with cellular proliferation. Thus, if ODC activity could be inhibited, cell hyperproliferation could be modulated. Although all cases for ODC activity increases are unknown, it is known that 12-O-tetradecanoylphorbol-13-acetate (TPA) induces ODC activity. […] Activity of exemplary compounds of the present invention in the above-described ODC assay is disclosed in Table 2 which provides the IC80 concentration for the respective exemplary compound. ("IC80 " is that concentration of the test compound which causes 80% inhibition in the ODC assay)

Row | Structure (SMILES) | IC80 conc [nmols]
1 | CCOC(=O)c1ccc(C=Nc2ccc3c(c2)C(C)(C)CCC3(C)C)cc1 [Compound 4, N-(5,6,7,8-Tetrahydro-5,5,8,8-tetramethyl)-2-naphthalenyl 4-ethoxycarbonyl benzaldimine] | 2.5
2 | CCOC(=O)c1ccc(C(C)=Nc2ccc3c(c2)C(C)(C)CCC3(C)C)cc1 [Compound 5, N-(5,6,7,8-Tetrahydro-5,5,8,8-tetramethyl)-2-naphthalenyl 4-ethoxycarbonyl acetophenone imine] | 5.5
3 | CCOC(=O)c1ccc(C=Nc2cc3c(cc2C)C(C)(C)CCC3(C)C)cc1 [Compound 6, N-(5,6,7,8-Tetrahydro-3,5,5,8,8-pentamethyl)-2-naphthalenyl 4-ethoxycarbonyl benzaldimine] | 293
4 | CCOC(=O)c1ccc(C=Nc2ccc3c(c2)C(C)(C)CCC3(C)C)nc1 [Compound 7, Ethyl 6-(N-5,6,7,8-tetrahydro-5,5,8,8-tetramethyl-2-naphthalenyl) 3-ethoxycarbonyl-pyridine-6-carboxaldehyde imine] | > 30

The remaining lines, values ahead:

Row | IC80 conc [nmols] | Structure (SMILES)
5 | 14.5 | COC(=O)c1ccc(C=Nc2ccc3c(c2)C(C)(C)CCC3(C)C)cc1 [Compound 1]
6 | 9.6 | CCOC(=O)c1ccc(N=Cc2ccc3c(c2)C(C)(C)CCC3(C)C)cc1 [Compound 9, N-(4'-Ethoxycarbonyl)phenyl 5,6,7,8-tetrahydro-5,5,8,8-tetramethyl,naphthalene-2-carboxaldehyde imine]
7 | 44.0 | CCOC(=O)c1ccc(N=Cc2ccc3c(c2)C(C)(C)CC(C)(C)O3)cc1 [Compound 10, N-(4'-Ethoxycarbonyl) phenyl 2,2,4,4-tetramethyl-chroman-6-carboxaldehyde imine]
8 | 3.5 | CCOC(=O)c1ccc(N=Cc2cc3c(cc2C)C(C)(C)CCC3(C)C)cc1 [Compound 11, N-(4'-Ethoxycarbonyl) phenyl-2-(5,6,7,8-tetrahydro-3,5,5,8,8-pentamethyl) naphthalene-2-carboxaldehyde imine]

Tested on: ornithine decarboxylase (ODC)
Experiment: not given
Conditions: literature statement in words; 12-O-tetradecanoylphorbol-13-acetate (TPA) as inducer; cited from earlier work

Row | Structure (SMILES) | inhibition of TPA induction of ODC activity
9 | CC1=C(/C=C/C(C)=C/C=C/C(C)=C/C(=O)O)C(C)(C)CCC1 [Retinoic acid] | inhibits this induction of ODC activity by TPA
